“And” between values parts separate entries of the source, which are not always exact repeats. Equal values may be shown once.
Assays:
[1] = target: T1, receptor tyrosine kinase AXL (Homo sapiens, UniProt P30530); assay: Enzyme activity of receptor tyrosine kinase AXL (ELISA); format: biochemical; details: for inhibition at 0.01 µM: 10 nM; for inhibition at 0.01 µM / inhibition at 0.1 µM / inhibition at 1 µM / inhibition at 0.001 µM: read-out: AXL activity Inhibitory rate(%); for inhibition at 0.1 µM: 100 nM; for inhibition at 1 µM: 1000 nM; for AXL activity (in words): at 1000, 100, and 10 nM; for inhibition at 0.001 µM: 1 nM
T1 construct: 50 μL of AXL kinase domain recombinant protein diluted in reaction buffer was added to start the reaction; made in house; host or cells: insect cells (baculovirus expression system)
T1 sequence (P30530 536-807 limits assumed): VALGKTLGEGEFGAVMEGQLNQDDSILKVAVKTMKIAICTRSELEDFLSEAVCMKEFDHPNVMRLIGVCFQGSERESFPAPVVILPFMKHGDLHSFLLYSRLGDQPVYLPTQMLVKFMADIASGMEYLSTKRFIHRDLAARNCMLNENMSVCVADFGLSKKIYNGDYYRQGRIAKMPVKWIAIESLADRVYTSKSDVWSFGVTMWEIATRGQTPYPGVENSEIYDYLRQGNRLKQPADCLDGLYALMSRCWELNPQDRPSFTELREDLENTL
Procedure: Detection method: Enzyme-linked immunosorbent assay (ELISA)
Tested receptor tyrosine kinase: AXL
The full-wavelength microplate reader for experiment reading was a product of Molecular Device, model: SpectraMax 190; the experiment water was distilled water produced by Sinopharm Group.
Compound preparation: The compounds were centrifuged at 12,000 g for 5 min, and DMSO was added to prepare a 10^−2M stock solution, vortexed evenly and sonicated for 10 min for use, and stored at −40° C. During the test, the compound was diluted from the stock solution to 100 times the tested concentration with DMSO (the DMSO concentration in the system was 1%).
1. […] Discard the liquid from the well. The plate was washed and washed three times with T-PBS (0.1% Tween-20 in potassium-free PBS, 200 μL/well) for 5 minutes each time.
2. 49 μL of ATP solution diluted with reaction buffer (50 mM HEPES pH 7.4, 50 mM MgCl2, 0.5 mM MnCl2, 0.2 mM Na3VO4, 1 mM DTT) was added to each well, and […] of the tested compound was added to each well, and then 50 μL of AXL kinase domain recombinant protein diluted in reaction buffer was added to start the reaction. Two control wells without ATP were added in each experiment. (100 rpm) Reacted in 37° C. shaker for 1 hour. Discard the liquid from the well, and the plate was washed with T-PBS for three times.
3. […] Discard the liquid from the well, and the plate was washed with T-PBS for three times.
4. The horseradish peroxidase-labeled goat anti-mouse second antibody dilution (antibody diluted 1:2000 with BSA 5 mg/mL in T-PBS), 100 μL/well, and reacted in 37° C. shaker for 0.5 hours. Discard the liquid from the well, and the plate was washed with T-PBS for three times.
6. The reaction was quenched with 50 μL/well 2M […], and read at 490 nm using a tunable microplate reader VERSAmax.
The IC50 values were obtained by four-parameter regression analysis using the software supplied with the microplate reader.

[2] = target: receptor tyrosine kinase c-Met (Homo sapiens, UniProt P08581); assay: In vitro c-Met kinase inhibitory activity; format: biochemical; details: two values per compound; for inhibition at 0.01 µM / inhibition at 0.1 µM / inhibition at 0.001 µM: read-out: c-Met Inhibitory rate (%)
Text: Experimental Example 3: Study of In Vitro c-Met Kinase Inhibitory Activity
Since the screening results of 369 kinase profiles of compound DC621044 has shown that the compound has a certain inhibitory activity on c-Met. We further screened some compounds for their inhibitory activity on c-Met kinase.

receptor tyrosine kinase c-Met, sequence (P08581 25-1390): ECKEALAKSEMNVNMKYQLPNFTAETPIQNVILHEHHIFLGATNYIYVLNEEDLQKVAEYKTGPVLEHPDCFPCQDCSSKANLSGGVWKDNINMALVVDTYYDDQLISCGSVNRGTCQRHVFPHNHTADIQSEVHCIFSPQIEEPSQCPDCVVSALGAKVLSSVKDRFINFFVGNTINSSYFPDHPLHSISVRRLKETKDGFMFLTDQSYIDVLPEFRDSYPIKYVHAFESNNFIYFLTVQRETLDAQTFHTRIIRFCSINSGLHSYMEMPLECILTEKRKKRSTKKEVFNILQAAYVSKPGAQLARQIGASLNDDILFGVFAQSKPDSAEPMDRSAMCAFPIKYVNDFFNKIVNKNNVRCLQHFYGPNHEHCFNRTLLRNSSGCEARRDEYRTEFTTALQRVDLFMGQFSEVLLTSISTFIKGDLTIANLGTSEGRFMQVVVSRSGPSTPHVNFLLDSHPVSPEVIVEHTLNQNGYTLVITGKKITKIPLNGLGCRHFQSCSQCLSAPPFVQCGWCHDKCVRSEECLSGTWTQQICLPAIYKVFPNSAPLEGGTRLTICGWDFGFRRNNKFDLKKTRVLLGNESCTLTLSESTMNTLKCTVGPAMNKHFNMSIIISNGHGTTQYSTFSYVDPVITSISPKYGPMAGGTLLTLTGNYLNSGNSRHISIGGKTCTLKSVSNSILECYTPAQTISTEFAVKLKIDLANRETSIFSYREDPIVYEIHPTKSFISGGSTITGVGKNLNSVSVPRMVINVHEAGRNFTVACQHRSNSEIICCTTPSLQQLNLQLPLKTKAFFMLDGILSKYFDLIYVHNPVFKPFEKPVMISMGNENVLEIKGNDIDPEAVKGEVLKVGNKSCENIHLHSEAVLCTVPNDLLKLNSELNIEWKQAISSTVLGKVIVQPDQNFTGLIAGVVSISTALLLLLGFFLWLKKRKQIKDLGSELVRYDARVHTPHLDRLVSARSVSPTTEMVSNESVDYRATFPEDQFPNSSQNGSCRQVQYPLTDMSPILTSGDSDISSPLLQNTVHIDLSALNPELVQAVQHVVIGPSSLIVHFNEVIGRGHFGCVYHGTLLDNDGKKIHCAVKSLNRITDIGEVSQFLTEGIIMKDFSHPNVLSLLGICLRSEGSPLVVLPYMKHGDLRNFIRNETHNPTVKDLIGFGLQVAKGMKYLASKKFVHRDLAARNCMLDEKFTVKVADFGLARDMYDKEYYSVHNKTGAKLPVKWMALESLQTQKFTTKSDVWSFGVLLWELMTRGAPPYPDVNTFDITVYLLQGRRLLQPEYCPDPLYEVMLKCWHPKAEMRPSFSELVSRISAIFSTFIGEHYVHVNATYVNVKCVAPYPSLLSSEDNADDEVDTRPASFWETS

SMILES | inhibition at 0.01 µM [1] [%] | inhibition at 0.1 µM [1] [%] | inhibition at 1 µM [1] [%] | AXL activity (in words) [1] | c-Met Inhibitory rate (%) ([2]; 1 nM, 0.001 µM) | c-Met Inhibitory rate (%) ([2]; 10 nM, 0.01 µM) | inhibition at 0.01 µM ([2]; 10 nM) [%] | c-Met Inhibitory rate (%) ([2]; 100 nM, 0.1 µM) | inhibition at 0.1 µM ([2]; 100 nM) [%] | inhibition at 0.001 µM [1] [%] | inhibition at 0.001 µM ([2]; 1 nM) [%]
COc1nc(OC)nc(Oc2ccc(NC(=O)c3c4n(n(-c5ccccc5)c3=O)CCCC4)cc2)n1 [DC621003, N-(4-((4,6-dimethoxy-1,3,5-triazine-2-yl)oxy)phenyl)-2-oxo-1-phenyl-1,2,4,5,6,7-hexahydro[1,5-a]pyridine-3-formamide, reference compound] | -15.5 | 2.8 | -7.2 | almost no activity | – | – | – | – | – | – | –
Cc1nccc(Oc2ccc(NC(=O)c3c4n(n(-c5ccccc5)c3=O)CCCC4)cc2)n1 [DC621005, N-(4-((2-methylpyrimidine-4-yl)oxy)phenyl)-2-oxo-1-phenyl-1,2,4,5,6,7-hexahydro[1,5-a]pyridine-3-formamide, reference compound] | -14.6 | 18.3 | -7.8 | almost no activity | – | – | – | – | – | – | –
O=C(Nc1ccc(Oc2ncnc3cc4c(cc23)OCCOCCOCCO4)c(F)c1)c1c2n(n(-c3ccccc3)c1=O)CCCC2 [DC621061, N-(3-fluoro-4-((7,8,10,11,13,14-hexahydro-[1,4,7,10]tetraoxacyclododecane [2,3-g]quinazolin-4-yl)oxy)phenyl)-2-oxo-1-phenyl-1,2,4,5,6,7-hexahydropyrazolo[1,5-a]pyridine-3-formamide] | 66.7 | 91.8 | – | – | 35.7% and 61.1% | 62.4% | 51.1 | 95.7 | 94.7 | 22.9 | –
O=C(Nc1ccc(Oc2ncnc3cc4c(cc23)OCCOCCOCCO4)c(Cl)c1)c1c2n(n(-c3ccccc3)c1=O)CCCC2 [DC621062, N-(3-chloro-4-((7,8,10,11,13,14-hexahydro-[1,4,7,10]tetraoxacyclododecane [2,3-g]quinazolin-4-yl)oxy)phenyl)-2-oxo-1-phenyl-1,2,4,5,6,7-hexahydropyrazolo[1,5-a]pyridine-3-formamide] | 43 | 70.6 | – | – | 35.9% and 68.6% | 78.1% and 98.9% | – | 100 | 99.8 | 6.3 | –
O=C(Nc1ccc(Oc2ncnc3cc4c(cc23)OCCOCCOCCO4)c(Cl)c1)c1c2n(n(-c3cc(F)ccc3F)c1=O)CCCC2 [DC621064, 1-(2,5-difluorophenyl)-N-(3-chloro-4-((7,8,10,11,13,14-hexahydro-[1,4,7,10]tetraoxacyclododecane [2,3-g]quinazolin-4-yl)oxy)phenyl)-2-oxo-1,2,4,5,6,7-hexahydropyrazolo[1,5-a]pyridine-3-formamide] | 47.4 | 83.4 | – | – | – | – | – | – | – | 30.8 | –
O=C(Nc1ccc(Oc2ncnc3cc4c(cc23)OCCOCCOCCO4)c(F)c1)c1c2n(n(-c3ccccc3F)c1=O)CCCC2 [DC621065, N-(3-fluoro-4-((7,8,10,11,13,14-hexahydro-[1,4,7,10]tetraoxacyclododecane [2,3-g]quinazolin-4-yl)oxy)phenyl)-1-(2-fluorophenyl)-2-oxo-1,2,4,5,6,7-hexahydropyrazolo[1,5-a]pyridine-3-formamide] | 45.8 | 95 | – | – | – | – | – | – | – | 29.6 | –
O=C(Nc1ccc(Oc2ncnc3cc4c(cc23)OCCOCCOCCO4)c(Cl)c1)c1c2n(n(-c3ccc(F)cc3)c1=O)CCCC2 [DC621068, N-(3-chloro-4-((7,8,10,11,13,14-hexahydro-[1,4,7,10]tetraoxacyclododecane[2,3-g]quinazolin-4-yl)oxy)phenyl)-1-(4-fluorophenyl)-2-oxo-1,2,4,5,6,7-hexahydropyrazolo[1,5-a]pyridine-3-formamide] | 55.1 | 85.8 | – | – | 46.0% | 85.9% | 71.2 | – | 100 | 16.5 | 34
COCCOc1cc2ncnc(Oc3ccc(NC(=O)c4c5n(n(-c6ccccc6)c4=O)CCCC5)cc3Cl)c2cc1OCCOC [DC621070, N-(4-((6,7-bis(2-methoxyethoxy)quinazolin-4-yl)oxy)-3-chlorophenyl)-2-oxo-1-phenyl-1,2,4,5,6,7-hexahydropyrazolo[1,5-a]pyridine-3-formamide] | 60.5 | 91.1 | – | – | – | – | – | – | – | 2.4 | –
COCCOc1cc2ncnc(Oc3ccc(NC(=O)c4c5n(n(-c6ccccc6)c4=O)CCCC5)cc3C(F)(F)F)c2cc1OCCOC [DC621072, N-(4-((6,7-bis(2-methoxyethoxy)quinazolin-4-yl)oxy)-3-trifluoromethylphenyl)-2-oxo-1-phenyl-1,2,4,5,6,7-hexahydropyrazolo[1,5-a]pyridine-3-formamide] | 52.1 | 75.9 | – | – | 34.3% | 68.4% | 67.6 | 96.6 | 95.8 | 34.8 | 24.1
COCCOc1cc2ncnc(Oc3ccc(NC(=O)c4c5n(n(-c6cc(F)ccc6F)c4=O)CCCC5)cc3Cl)c2cc1OCCOC [DC621080, 1-(2,5-difluorophenyl)-N-(4-((6,7-bis(2-methoxyethoxy)quinazolin-4-yl)oxy)-3-chlorophenyl)-2-oxo-1,2,4,5,6,7-hexahydropyrazolo[1,5-a]pyridine-3-formamide] | 76.4 | 100 | – | – | – | 58.3% | 68.8 | 93.5 | 97.1 | 35.5 | –
COc1cc2ncnc(Oc3ccc(NC(=O)c4c5n(n(-c6cc(F)ccc6F)c4=O)CCCC5)cc3C(F)(F)F)c2cc1OC [DC621081, 1-(2,5-difluorophenyl)-N-(4-((6,7-dimethoxyquinazoline-4-yl)oxy)-3-trifluoromethylphenyl)-2-oxo-1,2,4,5,6,7-hexahydropyrazolo[1,5-a]pyridine-3-formamide] | 34.9 | 79.2 | – | – | – | – | – | – | – | 16.3 | –
COCCOc1cc2ncnc(Oc3ccc(NC(=O)c4c5n(n(-c6ccccc6F)c4=O)CCCC5)cc3Cl)c2cc1OCCOC [DC621090, N-(4-((6,7-bis(2-methoxyethoxy)quinazolin-4-yl)oxy)-3-chlorophenyl)-1-(2-fluorophenyl)-2-oxo-1,2,4,5,6,7-hexahydropyrazolo[1,5-a]pyridine-3-formamide] | 62.9 | 92.7 | – | – | – | – | – | – | – | 21.1 | –
COCCOc1cc2ncnc(Oc3ccc(NC(=O)c4c5n(n(-c6ccccc6F)c4=O)CCCC5)cc3C(F)(F)F)c2cc1OCCOC [DC621092, N-(4-((6,7-bis(2-methoxyethoxy)quinazolin-4-yl)oxy)-3-trifluoromethylphenyl)-1-(2-fluorophenyl)-2-oxo-1,2,4,5,6,7-hexahydropyrazolo[1,5-a]pyridine-3-formamide] | 61 | 78 | – | – | 16.8% | 53.1% | 71.6 | 89.8 | 94.2 | 4.8 | 25.3
